Assay results published in patent US9012492B2, “Apocynin-lipoic acid conjugates and uses thereof” (priority 2011, dated 2015).

Key:
Sprague-Dawley rats = assay: Infarct volume after transient middle cerebral artery occlusion, ischemia/reperfusion (I/R); type: in vivo, rat
Experimental: Sprague-Dawley rats were used to study the effects of (Ia) on reperfusion injury following stroke in a rodent model. The rats were anesthetized, and injected with (la) (0.01-0.1 mg/kg). After 30 minutes, occlusion of the middle cerebral artery (MCA) was performed.
The detailed methodology for permanent middle cerebral artery occlusion (MCAO) and transient (I/R) occlusion of the middle cerebral artery has been published previously.^46 Briefly, animals were placed in a David Kopf stereotaxic frame (Tujunga, Calif.), and the right middle cerebral artery (MCA) approached through a rostral-caudal incision of the skin and frontalis muscle at the approximate level of bregma. Blood flow through the MCA was impeded by the placement of surgical suture behind the MCA at three designated positions along the exposed vessel. The sutures were positioned so that the middle of each suture applied pressure to the underside of the MCA and impeded blood flow as confirmed using laser Doppler flowmetry (OxyFlo, Oxford-Optronix, Oxford, UK; Ref. 46). This three-point placement of surgical sutures produced a highly reproducible and consistent focal ischemic lesion (permanent ischemia) restricted to the prefrontal cerebral cortex. For transient I/R, the sutures were left in place for 30 min and then removed (reperfusion) to allow blood flow to return to the area for an additional 5.5 h (209 rats received I/R). In 12 rats, sutures were left in place for 6 h as a model of permanent ischemia.
To examine the effect of the compound of Formula (Ia) on I/R-induced cell death, injections of the compound of Formula (Ia) (0.01, 0.05, 0.1, or 0.5 mg/kg; 1 ml/kg iv; n=4 per group) or vehicle (25% EtOH; 1 ml/kg iv; n=6) were made 30 min prior to the onset of MCAO. The sutures were left in place for 30 min and removed. Reperfusion was allowed for 5.5 h, and the experiment was terminated.
To determine whether the compound of Formula (Ia) was neuroprotective when administered during the 30-min period of occlusion, injections of the compound of Formula (Ia) at a dose that produced optimal neuroprotection based on the dose-response-curve described above (0.1 mg/kg; 1 ml/kg iv; n=4) or vehicle (25% EtOH; 1 mi/kg iv; n=4) were made 15 min following the onset of MCAO. After a further 15 min, the sutures were removed to allow for an additional 5.5 h of reperfusion.
To examine the effect of the compound of Formula (Ia) on reperfusion injury alone, injections of the optimal dose of the compound of Formula (Ia) (0.1 mg/kg; 1 ml/kg iv; n=4 per group) or vehicle (1 ml/kg iv; n=4 or 5 per group) were made following 30 min of MCAO, immediately prior to the removal of the sutures, or 30, 60, 90, 120, or 180 min following suture removal (start of reperfusion). In all cases, the experiments were terminated following 5.5 h of reperfusion.
To determine whether the compound of Formula (Ia) required bioactivation and/or metabolism to an active intermediate to produce neuroprotection, the effect of direct intracortical injections of the compound of Formula (Ia) on infarct volume were investigated in the present model of transient occlusion (I/R). The compound of Formula (Ia) (0.01, 0.1, 0.5, or 1.0 μM in 200 n1; n=4 per group) or the same volume of vehicle (0.0125% EtOH; 200 n1; n=6) was injected into the ipsilateral hemisphere (bregma—0.3 mm, lateral—5.5 mm and depth of—3.0 mm from the dorsal surface of the brain)^47 10 min prior to suture placement followed by 30 min of MCAO and 5.5 h of reperfusion.
To examine the effect of the compound of Formula (Ia) on the change in infarct volume over the 5.5 h of reperfusion, injections of the optimal dose of the compound of Formula (Ia) (0.1 mg/kg; 1 ml/kg iv; n=4 per group) or vehicle (25% EtOH; 1 ml/kg iv; n=4) were made 30 min prior to the onset of MCAO. The sutures were left in place for 30 min. […]

rat liver microsomes = assay: Metabolic stability using rat liver microsomes; type: in vitro ADME; conditions: RLM
Excerpt: Table 7 summarizes the experimental conditions used in the studies of the metabolic stability of the compound of Formula (Ia) using rat liver microsomes. Table 8 and FIG. 13 show the results from the studies of the metabolic stability of the compound of Formula (Ia) using rat liver microsomes. [table]

N27 neuronal cells = assay: DNA fragmentation ELISA after hydrogen peroxide exposure of N27 neuronal cells; type: cell-based; conditions: pretreatment 100 μM
Experimental: Specifically, the effects of (Ia) on oxidative stress in N27 neuronal cells, a dopaminergic cell line were studied. […]
The cells were then lysed, and DNA fragmentation was determined by ELISA assay.

[1] = test system: dog liver microsomes (DLM); assay: Metabolic stability using dog liver microsomes; type: in vitro ADME
Excerpt: Table 9 summarizes the experimental conditions used in the studies of the metabolic stability of the compound of Formula (Ia) using dog liver microsomes and human liver microsomes.

[2] = Stability in methanolic solution; type: physicochemical; conditions: stock 1 mg/mL in methanol

## COc1cc(C(C)=O)ccc1OC(=O)CCCCC1CCSS1 (stereo not shown) [compound of Formula (Ia)]
Sprague-Dawley rats; 0.1 mg/kg iv 15 min into 30-min MCAO (15 min prior to reperfusion)
  infarct volume after 5.5 h reperfusion vs vehicle: significant neuroprotection
Sprague-Dawley rats; 0.1 mg/kg iv 30 min following the start of reperfusion
  infarct volume after 5.5 h reperfusion vs vehicle: significant decreases in infarct volume
Sprague-Dawley rats; 0.1 mg/kg iv 30 min prior to MCAO, 30 min MCAO, 5.5 h reperfusion
  infarct volume following I/R vs vehicle: significant decrease in infarct volume
Sprague-Dawley rats; 0.1 mg/kg iv 30 min prior to MCAO, end of 5.5 h of reperfusion
  mean infarct volume smaller than the vehicle group: ~53%
Sprague-Dawley rats; 0.1 mg/kg iv 30 min prior to MCAO, measured at 4 h
  mean infarct volume vs vehicle, time course: significantly smaller
Sprague-Dawley rats; 0.1 mg/kg iv 30 min prior to MCAO, measured at 6 h
  mean infarct volume vs vehicle, time course: significantly smaller
Sprague-Dawley rats; 0.1 mg/kg iv 60 min following the start of reperfusion
  infarct volume after 5.5 h reperfusion vs vehicle: significant decreases in infarct volume
Sprague-Dawley rats; 0.1 mg/kg iv 90 min following the start of reperfusion
  infarct volume after 5.5 h reperfusion vs vehicle: significant decreases in infarct volume
Sprague-Dawley rats; 0.1 mg/kg iv 120 min following suture removal
  infarct volume after 5.5 h reperfusion vs vehicle: did not result in a significant difference in infarct volume
Sprague-Dawley rats; 0.1 mg/kg iv 180 min following suture removal
  infarct volume after 5.5 h reperfusion vs vehicle: did not result in a significant difference in infarct volume
Sprague-Dawley rats; 0.1 mg/kg iv at time 0 (start of reperfusion)
  infarct volume after 5.5 h reperfusion vs vehicle: significant decreases in infarct volume
Sprague-Dawley rats; 0.5 mg/kg iv 30 min prior to MCAO, 30 min MCAO, 5.5 h reperfusion
  infarct volume following I/R vs vehicle: significant decrease in infarct volume
Sprague-Dawley rats; 0.01, 0.05, 0.1, 0.5 mg/kg iv 30 min prior to MCAO, 30 min MCAO, 5.5 h reperfusion
  neuroprotection (infarct volume) following I/R: dose-dependent neuroprotection
Sprague-Dawley rats; Example 3, 0.01-0.1 mg/kg injected 30 minutes before MCA occlusion, vs ethanol vehicle
  stroke infarct volume: dose-dependent reduction in stroke infarct volume
Sprague-Dawley rats; I/R model, iv
  dose required to produce significant neuroprotection: 0.1 mg/kg
Sprague-Dawley rats; direct intracortical preinjection 1.0 μM (200 nl) 10 min pre-MCAO
  infarct volume following I/R vs vehicle: significant decrease in infarct volume
Sprague-Dawley rats; optimal dose (0.1 mg/kg iv)
  latest administration time giving significant neuroprotection, following the start of reperfusion: up to 90 min
Rat liver microsomes; control (without NADPH)
  % Metabolism in 30 minutes: 0%
  CLintr (mL/min/g liver): >67 mL/min/g liver
Rat liver microsomes; reaction (with NADPH)
  % Metabolism in 30 minutes: 0%
  CLintr (mL/min/g liver): >67 mL/min/g liver
N27 neuronal cells
  DNA fragmentation induced by hydrogen peroxide reduced by: 73%
N27 neuronal cells; then hydrogen peroxide (1 mM), n = 4
  DNA cell fragmentation: 138 ± 20 percentage of control
[1]; DLM control (without NADPH)
  % Metabolism in 30 minutes: 0%
  CLintr (mL/min/g liver): >67 mL/min/g liver
[1]; DLM reaction (with NADPH)
  % Metabolism in 30 minutes: 0%
  CLintr (mL/min/g liver): >67 mL/min/g liver
[2]
  stability in methanolic solution: stable
